Test results from patent US9023789B2, “Amylin analogs and pharmaceutical compositions thereof” (Novo Nordisk A/S, priority 2012, dated 2015).
Numbered stars: 1 amine (or outer) side, 2 acyl side, 3 side chain; on linkers, the order of the positions; unused ones are H or OH. Bridge positions count the residues as written; N and C are the ends. Side chains are listed from the residue outwards. Peptide text beside a SMILES is read from it. * marks the point of attachment. C20 diacid = O=C(O)CCCCCCCCCCCCCCCCCCC(=O)*; γGlu = O=C(O)[C@H](CCC(=O)[*:2])N[*:1]

Tests used:
[1] = molecular target: T1, human amylin 3(a) receptor (human calcitonin receptor + RAMP-3) in BHK570 cells (Homo sapiens, UniProt O60896+P30988); experiment: ASSAY (II)a functional assay, human amylin receptor (CRE luciferase); type: cell-based
T1 construct: expressed in transfected cells
Summary of the method: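 BHK CRE-luc cells, calcitonin (a) receptor ± RAMP-3 (amylin 3(a)); overnight seeding, 37° C/5% CO2. 3 h ligand exposure, DMEM/10% FBS/10 mM Hepes pH 7.4. LucLite 30 min RT; luminescence (SPC).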

[2] = molecular target: T2, human amylin receptor (membranes from Amylin 3(a)/CRE-luc cells) (Homo sapiens, UniProt O60896+P30988); experiment: ASSAY (V) binding to the human amylin receptor (SPA, 125I-rat amylin);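 note: competition binding of cell membranes (35 ng/µL) mixed with SPA beads in 384-well plates at 40 µL total volume, read by scintillation counting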
T2 construct: expressed in transfected cells
T2 sequence (P30988 25-474): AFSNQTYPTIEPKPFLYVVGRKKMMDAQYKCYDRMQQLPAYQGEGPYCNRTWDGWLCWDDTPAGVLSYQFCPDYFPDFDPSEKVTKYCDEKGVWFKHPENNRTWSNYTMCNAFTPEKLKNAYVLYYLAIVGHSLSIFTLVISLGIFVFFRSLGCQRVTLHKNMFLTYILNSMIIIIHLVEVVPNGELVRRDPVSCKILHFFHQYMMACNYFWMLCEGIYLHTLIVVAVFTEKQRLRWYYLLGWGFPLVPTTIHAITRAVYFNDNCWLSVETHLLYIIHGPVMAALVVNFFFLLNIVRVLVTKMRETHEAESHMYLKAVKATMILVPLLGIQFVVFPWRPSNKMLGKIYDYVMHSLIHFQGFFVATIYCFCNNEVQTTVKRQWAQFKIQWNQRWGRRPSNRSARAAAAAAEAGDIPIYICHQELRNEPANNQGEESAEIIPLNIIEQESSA
T2 sequence (O60896 24-148 partner): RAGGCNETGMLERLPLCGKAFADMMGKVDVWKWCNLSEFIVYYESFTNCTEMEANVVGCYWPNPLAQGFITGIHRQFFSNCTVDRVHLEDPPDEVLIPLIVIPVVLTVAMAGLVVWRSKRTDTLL

[3] = ASSAY (X) pK, determination of T½ in rat; type: in vivo; settings: male, Sprague Dawley, plasma, iv, 20 nmol/kg
[4] = test system: Male Sprague-Dawley rats; experiment: ASSAY (XI) single subcutaneous administration, food intake monitored for 48 hours in rats; type: in vivo, rat; settings: for Food intake red (%) 0-24 h / Food intake red (%) 24-48 h: single s.c., compared to vehicle
Text: Assay (XI)—Effect from Single Subcutaneous Administration of Analogue on Plasma Calcium in Rats
Male Sprague-Dawley rats (Taconic Europe, ˜250 g at test date) were acclimatized to reversed day light cycle (lights on from 10 PM to 10 AM) and single housing in online food intake monitoring system (Ellegaard MBRose, Denmark) prior to study start. […] Data are illustrated in graphs as mean±SEM.

[5] = test system: Male Wistar rats; experiment: ASSAY (XII) effect from single subcutaneous administration on plasma calcium in rats; type: in vivo, rat; settings: for Plasma calcium red (%) 0-12 h (maximal): single s.c., compared to vehicle
Description: Assay (XII)—Effect from Single Subcutaneous Administration of Analogue on Plasma Calcium in Rats
Male Wistar rats (Taconic Europe, ˜250 g at test date) were acclimatized to handling prior to the study. Rats were divided in groups of five and subcutaneously dosed with test compound at time=0. At time T=−15 min; 1 h, 2 h, 4 h, 7 h, 12 h, and 24 h a blood sample was obtained and heparin stabilized plasma was analysed for total calcium (Cobas, Hitachi). Data are illustrated in graphs as mean±SEM.

[6] = hCTR funct. EC50 divided by hAmylin-R funct. EC50
[7] = human functional selectivity: hCTR funct. EC50 / hAmylin-R funct. EC50
[8] = Table 5, selectivity, hCTR bind IC50 / hAmylin-R bind IC50
[9] = Table 5a, selectivity, hCTR bind IC50 / hAmylin-R bind IC50
[10] = Table 5b, selectivity, hCTR bind IC50 / hAmylin-R bind IC50
[11] = Table 5c, selectivity, hCTR bind IC50 / hAmylin-R bind IC50
[12] = Table 7, human binding selectivity, included for comparison
[13] = Table 7a (preferred compounds), human binding selectivity, included for comparison
[14] = ratio of human calcitonin receptor binding IC50 to human amylin receptor binding IC50
[15] = hCTR funct. EC50 over hAmylin-R funct. EC50

Row | Compound | Ratio hCT/hAmylin funct. [1, 6] | Ratio hCT/hAmylin funct. [1, 7] | Ratio hCT/hAmylin binding [2, 8] | Ratio hCT/hAmylin binding [2, 9] | Ratio hCT/hAmylin binding [2, 10] | Ratio hCT/hAmylin binding [2, 11] | Ratio hCT/hAmylin binding [2, 12] | Ratio hCT/hAmylin binding [2, 13] | Ratio hCT/hAmylin binding [2, 14] | half-life [3] [h] | Ratio hCT/hAmylin funct. [1, 15] | Food intake red (%) 0-24 h ([4]; 30 nmol/kg) [%] | Food intake red (%) 24-48 h ([4]; 30 nmol/kg) [%] | food intake monitored over 48 hours ([4]; single subcutaneous administration, 30 nmol/kg, versus vehicle) | Plasma calcium red (%) 0-12 h (maximal) ([5]; 30 nmol/kg) [%] | suppression of plasma calcium level relative to vehicle ([5]; single subcutaneous 30 nmol/kg, monitored over 24 hours) | Food intake red (%) 0-24 h ([4]; 3 nmol/kg) [%] | Food intake red (%) 24-48 h ([4]; 3 nmol/kg) [%] | Plasma calcium red (%) 0-12 h (maximal) ([5]; 10 nmol/kg) [%]
1 | CC[C@H](C)[C@H](NC(=O)[C@H](C)NC(=O)CNC(=O)[C@H](Cc1ccccc1)NC(=O)[C@H](CC(N)=O)NC(=O)[C@@H]1CCCN1C(=O)[C@H](CO)NC(=O)[C@H](CO)NC(=O)[C@H](Cc1c[nH]cn1)NC(=O)[C@H](CCCNC(=N)N)NC(=O)[C@H](CC(C)C)NC(=O)[C@H](Cc1ccccc1)NC(=O)[C@H](Cc1c[nH]cn1)NC(=O)[C@H](C)NC(=O)[C@H](CC(C)C)NC(=O)[C@H](CCCNC(=N)N)NC(=O)[C@H](CCC(N)=O)NC(=O)[C@@H](NC(=O)[C@H](C)NC(=O)[C@@H]1CSSC[C@H](NC(=O)[C@@H](N)CCCCNC(=O)CC[C@H](NC(=O)CCCCCCCCCCCCCCCCCCC(=O)O)C(=O)O)C(=O)N[C@@H](CC(N)=O)C(=O)N[C@@H]([C@@H](C)O)C(=O)N[C@@H](C)C(=O)N[C@@H]([C@@H](C)O)C(=O)N1)[C@@H](C)O)C(=O)N1CCC[C@H]1C(=O)N[C@@H](CO)C(=O)N[C@@H](CO)C(=O)N[C@H](C(=O)N[C@@H](CC(N)=O)C(=O)N[C@H](C(=O)NCC(=O)N1CCC[C@H]1C(=O)N[C@@H](CC(N)=O)C(=O)N[C@H](C(=O)N[C@@H](Cc1ccc(O)cc1)C(N)=O)[C@@H](C)O)C(C)C)[C@@H](C)O [Example 67] (H-K([γGlu-C20 diacid])CNTATCATQRLAHFLRHSSPNFGAIPSSTNVGPNTY-NH2; disulfide 2-7 (inferred); N-terminus assumed) | 5.2 | 5.2 | 51.6 | 51.6 | 51.6 | 51.6 | 51.6 | 51.6 | 51.6 | 7 |  |  |  |  |  |  |  |  | 
2 | CC[C@H](C)[C@H](NC(=O)[C@H](C)NC(=O)CNC(=O)[C@H](Cc1ccccc1)NC(=O)[C@H](CC(N)=O)NC(=O)[C@@H]1CCCN1C(=O)[C@H](CO)NC(=O)[C@H](CO)NC(=O)[C@H](Cc1c[nH]cn1)NC(=O)[C@H](CCCNC(=N)N)NC(=O)[C@H](CC(C)C)NC(=O)[C@H](Cc1ccccc1)NC(=O)[C@H](CCC(=O)O)NC(=O)[C@H](C)NC(=O)[C@H](CC(C)C)NC(=O)[C@H](CCCNC(=N)N)NC(=O)[C@H](CCC(N)=O)NC(=O)[C@@H](NC(=O)[C@H](C)NC(=O)[C@@H]1CSSC[C@H](NC(=O)[C@@H](N)CCCCNC(=O)CC[C@H](NC(=O)CCCCCCCCCCCCCCCCCCC(=O)O)C(=O)O)C(=O)N[C@@H](CC(N)=O)C(=O)N[C@@H]([C@@H](C)O)C(=O)N[C@@H](C)C(=O)N[C@@H]([C@@H](C)O)C(=O)N1)[C@@H](C)O)C(=O)N1CCC[C@H]1C(=O)N[C@@H](CO)C(=O)N[C@@H](CO)C(=O)N[C@H](C(=O)N[C@@H](CC(N)=O)C(=O)N[C@H](C(=O)NCC(=O)N1CCC[C@H]1C(=O)N[C@@H](CCCNC(=N)N)C(=O)N[C@H](C(=O)N[C@@H](Cc1ccc(O)cc1)C(N)=O)[C@@H](C)O)C(C)C)[C@@H](C)O [Example 117] (H-K([γGlu-C20 diacid])CNTATCATQRLAEFLRHSSPNFGAIPSSTNVGPRTY-NH2; disulfide 2-7; N-terminus assumed) | 17.0 | 17.0 | 38.6 | 38.6 | 38.6 | 38.6 | 38.6 | 38.6 | 38.6 |  | 17.0 | 61 | 4 | reduces food intake | 9 | None of the example compounds at 30 nmol/kg trigger a notable suppression of the calcium level |  |  | 
3 | CC[C@H](C)[C@H](NC(=O)[C@H](C)NC(=O)CNC(=O)[C@H](Cc1ccccc1)NC(=O)[C@H](CC(N)=O)NC(=O)[C@@H]1CCCN1C(=O)[C@H](CO)NC(=O)[C@H](CO)NC(=O)[C@H](Cc1c[nH]cn1)NC(=O)[C@H](CCCNC(=N)N)NC(=O)[C@H](CC(C)C)NC(=O)[C@H](Cc1ccccc1)NC(=O)[C@H](CCC(=O)O)NC(=O)[C@H](C)NC(=O)[C@H](CC(C)C)NC(=O)[C@H](CCCNC(=N)N)NC(=O)[C@H](CCC(N)=O)NC(=O)[C@@H](NC(=O)[C@H](C)NC(=O)[C@@H]1CSSC[C@H](NC(=O)[C@@H](N)CCCCNC(=O)CC[C@H](NC(=O)CCCCCCCCCCCCCCCCCCC(=O)O)C(=O)O)C(=O)N[C@@H](CC(N)=O)C(=O)N[C@@H]([C@@H](C)O)C(=O)N[C@@H](C)C(=O)N[C@@H]([C@@H](C)O)C(=O)N1)[C@@H](C)O)C(=O)N1CCC[C@H]1C(=O)N[C@@H](CO)C(=O)N[C@@H](CO)C(=O)N[C@H](C(=O)N[C@@H](CC(N)=O)C(=O)N[C@H](C(=O)NCC(=O)N1CCC[C@H]1C(=O)N[C@@H](Cc1c[nH]cn1)C(=O)N[C@H](C(=O)N[C@@H](Cc1ccc(O)cc1)C(N)=O)[C@@H](C)O)C(C)C)[C@@H](C)O [Example 118] (H-K([γGlu-C20 diacid])CNTATCATQRLAEFLRHSSPNFGAIPSSTNVGPHTY-NH2; disulfide 2-7) | 14.4 | 14.4 | 21.2 | 21.2 | 21.2 | 21.2 | 21.2 | 21.2 | 21.2 |  | 14.4 | 77 | 30 |  | 26 |  | 43 | 1 | 
4 | CC[C@H](C)[C@H](NC(=O)[C@H](C)NC(=O)CNC(=O)[C@H](Cc1ccccc1)NC(=O)[C@H](CC(N)=O)NC(=O)[C@@H]1CCCN1C(=O)[C@H](CO)NC(=O)[C@H](CO)NC(=O)[C@H](Cc1c[nH]cn1)NC(=O)[C@H](CCCNC(=N)N)NC(=O)[C@H](CC(C)C)NC(=O)[C@H](Cc1ccccc1)NC(=O)[C@H](CCC(=O)O)NC(=O)[C@H](C)NC(=O)[C@H](CC(C)C)NC(=O)[C@H](CCCNC(=N)N)NC(=O)[C@H](CCC(N)=O)NC(=O)[C@@H](NC(=O)[C@H](C)NC(=O)[C@@H]1CSSC[C@H](NC(=O)[C@@H](N)CCCCNC(=O)CC[C@H](NC(=O)CC[C@H](NC(=O)CCCCCCCCCCCCCCCCCCC(=O)O)C(=O)O)C(=O)O)C(=O)N[C@@H](CC(N)=O)C(=O)N[C@@H]([C@@H](C)O)C(=O)N[C@@H](C)C(=O)N[C@@H]([C@@H](C)O)C(=O)N1)[C@@H](C)O)C(=O)N1CCC[C@H]1C(=O)N[C@@H](CO)C(=O)N[C@@H](CO)C(=O)N[C@H](C(=O)N[C@@H](CC(N)=O)C(=O)N[C@H](C(=O)NCC(=O)N1CCC[C@H]1C(=O)N[C@@H](Cc1c[nH]cn1)C(=O)N[C@H](C(=O)N[C@@H](Cc1ccc(O)cc1)C(N)=O)[C@@H](C)O)C(C)C)[C@@H](C)O [Example 124] (H-K([γGlu-γGlu-C20 diacid])CNTATCATQRLAEFLRHSSPNFGAIPSSTNVGPHTY-NH2; disulfide 2-7 (inferred)) | 16.4 | 16.4 | 27.3 | 27.3 | 27.3 | 27.3 | 27.3 | 27.3 | 27.3 |  | 16.4 | 73 | 38 |  | 11 |  |  |  | 3
